According to article PMC9965520, “An Efficient Peptidomics Screening for Exogenous Substrates and Inhibitory Peptides of the Dipeptidase ACE from Milk Hydrolysate” (Pharmaceutics, 2023):
No end group written: not given here.

Target: T1, ACE (Oryctolagus cuniculus, UniProt P12822)
T1 sequence (P12822 34-1310): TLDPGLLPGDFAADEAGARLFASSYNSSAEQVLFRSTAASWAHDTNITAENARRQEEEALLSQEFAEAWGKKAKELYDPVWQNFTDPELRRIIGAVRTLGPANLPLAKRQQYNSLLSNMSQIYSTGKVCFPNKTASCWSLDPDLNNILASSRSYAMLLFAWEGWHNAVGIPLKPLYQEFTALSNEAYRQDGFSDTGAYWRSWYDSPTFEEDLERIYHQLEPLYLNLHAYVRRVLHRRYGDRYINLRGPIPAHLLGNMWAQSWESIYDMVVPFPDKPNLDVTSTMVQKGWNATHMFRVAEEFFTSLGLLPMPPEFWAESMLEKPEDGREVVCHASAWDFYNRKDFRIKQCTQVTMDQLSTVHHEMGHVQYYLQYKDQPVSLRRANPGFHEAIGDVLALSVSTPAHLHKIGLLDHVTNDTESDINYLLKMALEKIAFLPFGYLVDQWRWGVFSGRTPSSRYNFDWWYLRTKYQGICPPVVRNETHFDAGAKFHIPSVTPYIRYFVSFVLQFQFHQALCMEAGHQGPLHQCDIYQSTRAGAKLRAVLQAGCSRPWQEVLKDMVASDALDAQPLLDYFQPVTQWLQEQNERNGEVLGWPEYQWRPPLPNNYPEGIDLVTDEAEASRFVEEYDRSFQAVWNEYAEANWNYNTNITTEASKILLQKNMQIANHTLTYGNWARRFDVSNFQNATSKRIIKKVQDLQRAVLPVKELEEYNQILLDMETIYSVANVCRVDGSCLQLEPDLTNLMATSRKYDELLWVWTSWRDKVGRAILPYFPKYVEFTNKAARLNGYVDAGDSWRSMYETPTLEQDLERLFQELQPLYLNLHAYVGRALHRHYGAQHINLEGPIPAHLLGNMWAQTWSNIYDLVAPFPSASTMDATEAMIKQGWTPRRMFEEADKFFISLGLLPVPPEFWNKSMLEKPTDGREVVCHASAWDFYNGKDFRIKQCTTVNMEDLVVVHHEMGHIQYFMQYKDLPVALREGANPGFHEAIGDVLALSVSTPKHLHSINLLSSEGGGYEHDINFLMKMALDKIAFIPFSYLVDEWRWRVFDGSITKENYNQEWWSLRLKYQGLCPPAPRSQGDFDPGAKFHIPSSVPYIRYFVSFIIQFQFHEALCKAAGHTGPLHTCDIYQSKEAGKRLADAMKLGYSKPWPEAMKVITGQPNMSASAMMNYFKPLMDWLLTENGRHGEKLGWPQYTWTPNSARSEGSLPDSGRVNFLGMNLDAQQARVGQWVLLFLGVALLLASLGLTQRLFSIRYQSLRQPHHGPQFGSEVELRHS
Assay: ACE pre-incubation of milk hydrolysate peptide libraries, stable-isotope dimethyl labeling and LC-MS/MS (D/H ratio)
Assay type: in vitro ADME, rabbit
Parameters: ACE (EC 3.4.15.1, 1 unit) from rabbit lungs; purchased Sigma Chemical Co. (St. Louis, MO, USA); host or cells: rabbit lungs (tissue-derived enzyme)
Details: milk hydrolysate peptide library (<3 kDa); ACE-treated (0.05 mU/μL ACE, borate buffer, 37 °C, 3 h: 1.5 h static + 1.5 h 200 rpm; D-labeled) versus untreated (H-labeled) peptide; intensity ratio in LC-MS; <1 = hydrolysed by ACE
Description: The peptide libraries (200 μg) dissolved in borate buffer were equally divided into two parts, one was without any treatment (control group); the other part (experimental group) was incubated with 0.05 mU/μL ACE at 37℃ for 1.5 h statically, followed by gentle shaking at 200 rpm for another 1.5 h, and then the ACE reaction was quenched using 60 μL of 1N HCl. After lyophilization, both samples were redissolved in 100 μL of 0.1M sodium acetate and modified using stable-isotope dimethyl labeling according to the previous study with slight modifications. Briefly, the control group (without ACE incubation) had 4 μL of formaldehyde (37% solution in H2O) and 1 M NaBH3CN (10 μL) added to it; the experimental group had 20% formaldehyde-d2 (8 μL) and 1M NaBH3CN (10 μL) added to it. After 1h, 5 μL of ammonia (28% solution in H2O) were added individually to both groups to stop the reaction. The experimental group and the control group were combined and desalted using the PepClean™C18 spin column. The resulting peptide mixture was lyophilized and kept at −20 °C prior to LC-MS/MS analysis. Formaldehyde is known to the state of California to cause cancer; special caution was taken including the use of surgical gloves and a fume hood when formaldehyde was handled.
The combined mixture re-dissolved in 5% ACN containing 0.1% formic acid was separated using an Ultimate 3000 RSLC system (Dionex, Sunnyvale, CA, USA) coupled with a C18 column (Acclaim PepMap RSLC, 75 μm × 150 mm, Thermo Scientific, Waltham, Middlesex, MA, USA) and analyzed with a Thermo Q-ExactiveTM mass spectrometer (Thermo Scientific Inc., Waltham, Middlesex, MA, USA). The elution solution was composed of mobile phase A (0.1% formic acid in water) and B (0.1% formic acid in 95% acetonitrile). The elution gradient was arranged as follows: (i) isocratic elution using 1% B in the first 5.5 min for sample loading, (ii) linear gradient from 1% to 60% B in the next 39.5 min, (iii) linear gradient from 60% to 80% B in the following 10 min, and finally (iv) isocratic elution using 1% solution B for 10 min. The flow rate applied in the LC separation was maintained at 250 µL/min. The separated peptides were analyzed and quantified using Q-ExactiveTM mass spectrometry which was operated in the data-dependent mode and switched automatically between MS and HCD-MS2. A full MS scan was carried out in a 100 and 1500 m/z range, and the 14 ions of the highest intensities were selected for MS/MS scans. The RAW data were converted to the MGF file format followed by database-assisted sequencing with PEAKS DB using PEAKS Studio X (Bioinformatics Solutions Inc., Waterloo, ON, Canada). The parameters used for peptide identification were listed as follows: (1) Database: UniProt_SwissProt (Bos taurus); (2) Enzyme: pepsin, trypsin, α-chymotrypsin, or GI (the combination of these three proteases); (3) Type of enzyme: Unspecific; (4) Instrument: Orbitrap; (5) Parent mass error tolerance: 20 ppm; (6) Fragment mass error tolerance: 0.6 Da; (7) Variable modifications: Dimethyl (K), Dimethyl (N-term), Dimethyl:2H(4) (K), and Dimethyl:2H(4) (N-term) were used for identification and quantitative analysis. The sequence identified through the database was validated by manually matching with the MS/MS spectrum in the raw data. In addition to MS/MS analysis coupled with PEAKS studio, the ACE’s substrate candidates were further confirmed using the synthetic peptides with corresponding sequences by comparison with their LC retention times, m/z values, and MS/MS spectra. The relative abundances of hydrogen (H) and deuterium (D) labeled peptides were quantified based on the peak areas in their corresponding selective ion chromatograms (SIC). The D/H ratio of identified peptide with the same sequence was further examined by their relative signal intensities in MS spectrum. Theoretically, the D/H ratio of the isobaric pair should stay at 1 if the peptide will not react with ACE. […]

Substance	D/H Ratio
AYFYPELFR [AR-9]	0.19
FFVAPFPEVF [FF-10]	0.87
HLPLPLLQSW [HW-10]	0.12

Further lines, results first:

D/H Ratio	Substance
0.74	LHLPLPLL [LL-8]
0.26	LVYPFPGPIHNSL [LL-13]
0.33	YVPLGTQ [YQ-7]
